From patent publication US11617741B1, “Method for inhibiting growth of bacteria” (priority 2021, dated 2023)
Converted amounts (≈) assume the structure as drawn. Where two headings read alike, the source gives them in different places. Marks after values point to notes of the source that are not given here.

How the values were obtained:
[1] = tested on: S. aureus N315 (MRSA isolate); assay: Minimum inhibitory and bactericidal concentration determination; assay type: cell-based, Staphylococcus aureus; settings: for change of MIC in minimal media compared to rich media: S. aureus N315; for MIC: Staphylococcus aureus, MRSA; for MIC S. aureus N315: Table 2; for MBC S. aureus N315: Table 2, value in parentheses
Description: (§1) The 96-well plate was organized as follows. Media (100 μl) were added to all wells.

[2] = tested on: PKZRSA1 (PKZ18-22-resistant MRSA); assay: MICs against PKZ18-22-resistant mutant compared to WT MRSA; assay type: cell-based, Staphylococcus aureus
Description: as §1

E. coli = assay: Minimum inhibitory and bactericidal concentration determination, Gram-negative control; assay type: cell-based, Escherichia coli; settings: for MBC E. coli: value in parentheses
Description: as §1

glyQS T-box = assay: qRT-PCR transcriptional read-through of T-box-regulated glyQS (confirmation of inhibition of T-box mechanism); assay type: cell-based, Bacillus subtilis 1A5; settings: for T-box-controlled expression of glyQS (termination of read-through): B. subtilis 1A5, increasing concentrations, minimal media; for T-Box targeting: confirmation of inhibition of T-box mechanism from qRT-PCR assay; for inhibition of read-through compared with PKZ18: 4 μg/ml of each drug, side by side in same biological replicate
Description: Sample preparation of RNA and cDNA.

S. aureus N315 = assay: Checkerboard assay and FIC; assay type: cell-based, Staphylococcus aureus
Description: S. aureus N315 cultures were prepared identically to MIC determination in BHI media. The co-MICs were determined using the checkerboard method. In short, antibiotics to be tested with PKZ18 analogs were diluted 2-fold top to bottom (A to G rows) in a 96-well plate, PKZ18 analogs were diluted 2-fold right to left (columns 11-2 of the 96-well plate), and column 12 was used for vector, media, and growth controls. Each drug was therefore tested by itself and with every dilution of the other drug.
The synergistic and additive interactions were determined based on determined cutoffs using the equation
[formula] where MICAB is the lowest possible concentration of both drugs combined where there is no growth, and MICA and MICB are the MIC values of the individual drugs. For a synergistic drug interaction, the fractional inhibitory concentration (FIC) should be below 0.5, additive or indifferent effects are considered in an FIC range of 0.5 to <4, and an FIC value above 4 is considered antagonistic.

[3] = tested on: T-box controlled genes in MRSA; assay: RNA sequencing of MRSA grown in minimal media; assay type: cell-based, Staphylococcus aureus; settings: 4 μg/ml, control antibiotic
S. aureus N315 (MRSA) = assay: Antibiotic resistance frequency (fluctuation assay); assay type: cell-based, Staphylococcus aureus; settings: MRSA plated on 64 μg/ml PKZ18-22 or 10 μg/ml gentamicin
Description: Gentamicin on BHI agar was used as a control.

B. subtilis 168 = assay: Minimum inhibitory concentration determination; assay type: cell-based, Bacillus subtilis
Description: as §1

Row | Compound | MIC S. aureus N315 [1] | MBC S. aureus N315 [1] | MIC E. coli (E. coli) | MBC E. coli (E. coli) | T-Box targeting (glyQS T-box; Table 1) | T-Box targeting (glyQS T-box; Table 2) | further results
1 | C/C(=C\C(=O)OCCCCCCCCC(=O)O)C[C@@H]1OC[C@H](C[C@@H]2O[C@H]2[C@@H](C)[C@H](C)O)[C@@H](O)[C@H]1O [Mupirocin, reference compound] | – | – | – | – | – | – | change of MIC in minimal media compared to rich media [1]: increased MICs; MIC ([1]; S. aureus N315, minimal media, read-out: MIC against S. aureus in minimal media): 1 µg/mL (≈ 2 µM); MIC ([1]; S. aureus N315, rich media, read-out: MIC against S. aureus in rich media): 0.25 µg/mL (≈ 0.499 µM); change in the MIC between WT and PKZRSA1 [2]: no change
2 | CC(C)c1ccc(-c2csc(NC(=O)C3C4CCC(C4)C3C(=O)O)n2)cc1 (stereo not shown) [PKZ18-21] | 64 µg/mL (≈ 166 µM) | > 256 µg/mL | > 256 µg/mL | > 256 µg/mL | Yes | Yes | T-box-controlled expression of glyQS (termination of read-through) (glyQS T-box): inhibited
3 | CCCCc1ccc(-c2nc(NC(=O)C3C4C=CC(C4)C3C(=O)O)sc2C)cc1 (stereo not shown) [PKZ18-52] | 32 µg/mL (≈ 77.9 µM) | 64 µg/mL (≈ 156 µM) | > 256 µg/mL | > 256 µg/mL | Yes | Yes | MIC against S. aureus in minimal media ([1]; S. aureus N315, minimal media): 16^b μg/ml; MIC against S. aureus in rich media ([1]; S. aureus N315, rich media): 16-32^b μg/ml; inhibition of read-through compared with PKZ18 (glyQS T-box): significantly better than PKZ18; T-box-controlled expression of glyQS (termination of read-through) (glyQS T-box): inhibited; fractional inhibitory concentration FIC (S. aureus N315; with gentamicin): 0.38
4 | Cc1sc(NC(=O)C2C3C=CC(C3)C2C(=O)O)nc1-c1ccc(CC(C)C)cc1 (stereo not shown) [PKZ18-53] | 32 µg/mL (≈ 77.9 µM) | 64 µg/mL (≈ 156 µM) | > 256 µg/mL | > 256 µg/mL | Yes | Yes | fold reduction in MIC in minimal compared to rich media ([1]; MRSA strain S. aureus N315): 2 fold; MIC against S. aureus in minimal media ([1]; S. aureus N315, minimal media): 16^b μg/ml; MIC against S. aureus in rich media ([1]; S. aureus N315, rich media): 32^b μg/ml; inhibition of read-through compared with PKZ18 (glyQS T-box): significantly better than PKZ18; T-box-controlled expression of glyQS (termination of read-through) (glyQS T-box): inhibited; fractional inhibitory concentration FIC (S. aureus N315; with ampicillin): 0.75; fractional inhibitory concentration FIC (S. aureus N315; with chloramphenicol): 0.75; fractional inhibitory concentration FIC (S. aureus N315; with gentamicin): 0.38
5 | CCCCc1ccc(-c2nc(NC(=O)C3C4CCC(O4)C3C(=O)O)sc2C)cc1 (stereo not shown) [PKZ18-54] | 128 µg/mL (≈ 309 µM) | 256 µg/mL (≈ 618 µM) | > 256 µg/mL | > 256 µg/mL | No | No | –
6 | COc1ccc(-c2csc(NC(=O)C3C4CCC(C4)C3C(=O)O)n2)cc1 (stereo not shown) [PKZ18-55] | > 256 µg/mL | > 256 µg/mL | > 256 µg/mL | > 256 µg/mL | No | No | –
7 | CCCc1ccc(-c2nc(NC(=O)C3C4CCC(O4)C3C(=O)O)sc2C)cc1 (stereo not shown) [PKZ18-56] | > 256 µg/mL | > 256 µg/mL | > 256 µg/mL | > 256 µg/mL | No | No | –
8 | Cc1sc(NC(=O)C2C3CCC(O3)C2C(=O)O)nc1-c1ccc(CC(C)C)cc1 (stereo not shown) [PKZ18-57] | > 256 µg/mL | > 256 µg/mL | > 256 µg/mL | > 256 µg/mL | No | No | –
9 | CCc1ccc(-c2csc(NC(=O)C3C4CCC(C4=C(C)C)C3C(=O)O)n2)cc1 (stereo not shown) [PKZ18-58] | – | – | – | – | No | No | –
10 | O=C(N[C@H](CO)[C@H](O)c1ccc([N+](=O)[O-])cc1)C(Cl)Cl [chloramphenicol] | – | – | – | – | – | – | fold lower MIC for PKZRSA1 than WT MRSA [2]: 2 fold
11 | CCCCCCCCCC(=O)N[C@@H](Cc1c[nH]c2ccccc12)C(=O)N[C@H](CC(N)=O)C(=O)N[C@@H](CC(=O)O)C(=O)N[C@@H]1C(=O)NCC(=O)N[C@@H](CCCN)C(=O)N[C@@H](CC(=O)O)C(=O)N[C@H](C)C(=O)N[C@@H](CC(=O)O)C(=O)NCC(=O)N[C@H](CO)C(=O)N[C@@H]([C@H](C)CC(=O)O)C(=O)N[C@@H](CC(=O)c2ccccc2N)C(=O)O[C@@H]1C [daptomycin, reference compound] | – | – | – | – | – | – | change in the MIC between WT and PKZRSA1 [2]: no change; expression and read-through of T-box-controlled genes [3]: lower than untreated for many of the genes; initiation of T-box-controlled genes [3]: did not significantly affect
12 | Cc1onc(-c2ccccc2)c1C(=O)N[C@@H]1C(=O)N2[C@@H]1SC(C)(C)[C@@H]2C(=O)O [oxacillin] | – | – | – | – | – | – | fold increase in MIC against PKZRSA1 compared to WT [2]: 16 fold
13 | CO[C@H]1/C=C/O[C@@]2(C)Oc3c(C)c(O)c4c(O)c(c(/C=N/N5CCN(C)CC5)c(O)c4c3C2=O)NC(=O)/C(C)=C\C=C\[C@H](C)[C@H](O)[C@@H](C)[C@@H](O)[C@@H](C)[C@H](OC(C)=O)[C@@H]1C [rifampin] | – | – | – | – | – | – | change in the MIC between WT and PKZRSA1 [2]: no change
14 | Gentamicin [reference compound] | – | – | – | – | – | – | resistance frequency (S. aureus N315 (MRSA)): 1.6×10^−7; change of MIC in minimal media compared to rich media [1]: increased MICs; MIC against S. aureus in minimal media ([1]; S. aureus N315, minimal media): 2.0^b μg/ml; MIC against S. aureus in rich media ([1]; S. aureus N315, rich media): 0.5^b μg/ml; fold increase in MIC against PKZRSA1 compared to WT [2]: 2 fold; MIC against B. subtilis 168 in minimal media (B. subtilis 168; minimal media): 0.25 µg/mL; MIC against B. subtilis 168 in rich media (B. subtilis 168; rich media): 0.125 µg/mL; fold decrease in the MIC of gentamicin (S. aureus N315; in combination with PKZ18-22): 8 fold
